Results as given in ChEMBL document CHEMBL3046194, “Synthesis and antitumor activity of novel 4-aminoquinoline derivatives” (Med Chem Res, 2013).
The source made the active and inactive calls. No cut-off for these calls is given here.

What was measured:
[1] = Antitumor activity against Homo sapiens (human) LN229 cells assessed as inhibition of cell viability after 72 hr by MTT assay; assay type: functional, cell-based; settings: LN-229, 72 h
[2] = tested on: HEK293; assay: Cytotoxicity against Homo sapiens (human) HEK293 cells assessed as inhibition of cell viability after 72 hr by MTT assay; assay type: cell-based; settings: HEK293, 72 h
[3] = tested on: HCT-116; assay: Antitumor activity against Homo sapiens (human) HCT116 cells assessed as inhibition of cell viability after 72 hr by MTT assay; assay type: functional, cell-based; settings: HCT-116, 72 h
[4] = tested on: A549; assay: Antitumor activity against Homo sapiens (human) A549 cells assessed as inhibition of cell viability after 72 hr by MTT assay; assay type: functional, cell-based; settings: A549, 72 h
[5] = tested on: DU-145; assay: Antitumor activity against Homo sapiens (human) DU145 cells assessed as inhibition of cell viability after 72 hr by MTT assay; assay type: functional, cell-based; settings: DU-145, 72 h
[6] = tested on: HepG2; assay: Antitumor activity against Homo sapiens (human) HepG2 cells assessed as inhibition of cell viability after 72 hr by MTT assay; assay type: functional, cell-based; settings: HepG2, 72 h
[7] = tested on: HCT-116; assay: Decrease in VEGF protein expression in Homo sapiens (human) HCT116 cells at 2.5 to 10 uM after 48 hr by westerrn blot analysis; assay type: functional, cell-based

| SMILES | IC50 [1] | IC50 [2] | IC50 [3] | IC50 [4] | IC50 [5] | IC50 [6] | inhibition [7] |
| --- | --- | --- | --- | --- | --- | --- | --- |
| CCCNc1cc(-c2ccccc2)nc2cc(OC)cc(OC)c12 | 1.82 µM | 2 µM | 0.97 µM | 13.1 µM | 9.77 µM | 5.21 µM | Active |
| COc1cc(OC)c2c(NCc3ccccc3)cc(-c3ccccc3)nc2c1 | 7.15 µM | – | 12 µM | 12.8 µM | 10.1 µM | 10.9 µM | – |
| COc1cc(OC)c2c(Nc3ccccc3)cc(-c3ccccc3)nc2c1 | 5.9 µM | 13.2 µM | 4.28 µM | > 100 µM | 22.2 µM | 36.4 µM | – |
| COc1cc(OC)c2c(-n3ccnc3)cc(-c3ccccc3)nc2c1 | 55.3 µM | – | 42.4 µM | > 100 µM | > 100 µM | 58.6 µM | – |
| COc1cc(OC)c2c(N3CCCCC3)cc(-c3ccccc3)nc2c1 | 66 µM | 68.2 µM | 32 µM | > 100 µM | > 100 µM | > 100 µM | – |
| CCCCNc1cc(-c2ccccc2)nc2cc(OC)cc(OC)c12 | 3.92 µM | 3.23 µM | 3.05 µM | 19.6 µM | 4.63 µM | 4.46 µM | – |
| O=c1[nH]cc(F)c(=O)[nH]1 [FLUOROURACIL] | – | – | 1.93 µM | > 100 µM | 2.95 µM | 19.2 µM | – |
| COc1cc(OC)c2c(N3CCOCC3)cc(-c3ccccc3)nc2c1 | > 100 µM | > 100 µM | 28.1 µM | > 100 µM | > 100 µM | > 100 µM | – |
| COc1cc(OC)c2c(N3CCN(C)CC3)cc(-c3ccccc3)nc2c1 | 1.75 µM | 3.66 µM | 7.43 µM | > 100 µM | 16.4 µM | 22.6 µM | – |
| COc1cc(OC)c2c(NC3CCCCC3)cc(-c3ccccc3)nc2c1 | 6.08 µM | – | 3.82 µM | 6.59 µM | 5.47 µM | 3.16 µM | – |
